Experimental findings from article PMC9305131, “Expanding the Repertoire of Low‐Molecular‐Weight Pentafluorosulfanyl‐Substituted Scaffolds” (Chemmedchem, 2022) are described below.

Where “and” joins values, the source holds several entries; their conditions need not be identical. Equal entries are not always repeated. Entries after “also recorded” stand apart in the source; their conditions may differ. Where two headings read alike, the source gives them in different places.

For data set [1], the target named is VEGFR2 (Homo sapiens, UniProt P35968). The data set can be described thus: Biochemical kinase assay, VEGFR2. Particulars: for inhibition at 10 µM: read-out: Percent inhibition at 10 μM; for IC50: n=1, 10‐dose IC50 mode with twofold serial dilutions, starting at 10 μM.
VEGFR2, sequence (P35968 20-1356): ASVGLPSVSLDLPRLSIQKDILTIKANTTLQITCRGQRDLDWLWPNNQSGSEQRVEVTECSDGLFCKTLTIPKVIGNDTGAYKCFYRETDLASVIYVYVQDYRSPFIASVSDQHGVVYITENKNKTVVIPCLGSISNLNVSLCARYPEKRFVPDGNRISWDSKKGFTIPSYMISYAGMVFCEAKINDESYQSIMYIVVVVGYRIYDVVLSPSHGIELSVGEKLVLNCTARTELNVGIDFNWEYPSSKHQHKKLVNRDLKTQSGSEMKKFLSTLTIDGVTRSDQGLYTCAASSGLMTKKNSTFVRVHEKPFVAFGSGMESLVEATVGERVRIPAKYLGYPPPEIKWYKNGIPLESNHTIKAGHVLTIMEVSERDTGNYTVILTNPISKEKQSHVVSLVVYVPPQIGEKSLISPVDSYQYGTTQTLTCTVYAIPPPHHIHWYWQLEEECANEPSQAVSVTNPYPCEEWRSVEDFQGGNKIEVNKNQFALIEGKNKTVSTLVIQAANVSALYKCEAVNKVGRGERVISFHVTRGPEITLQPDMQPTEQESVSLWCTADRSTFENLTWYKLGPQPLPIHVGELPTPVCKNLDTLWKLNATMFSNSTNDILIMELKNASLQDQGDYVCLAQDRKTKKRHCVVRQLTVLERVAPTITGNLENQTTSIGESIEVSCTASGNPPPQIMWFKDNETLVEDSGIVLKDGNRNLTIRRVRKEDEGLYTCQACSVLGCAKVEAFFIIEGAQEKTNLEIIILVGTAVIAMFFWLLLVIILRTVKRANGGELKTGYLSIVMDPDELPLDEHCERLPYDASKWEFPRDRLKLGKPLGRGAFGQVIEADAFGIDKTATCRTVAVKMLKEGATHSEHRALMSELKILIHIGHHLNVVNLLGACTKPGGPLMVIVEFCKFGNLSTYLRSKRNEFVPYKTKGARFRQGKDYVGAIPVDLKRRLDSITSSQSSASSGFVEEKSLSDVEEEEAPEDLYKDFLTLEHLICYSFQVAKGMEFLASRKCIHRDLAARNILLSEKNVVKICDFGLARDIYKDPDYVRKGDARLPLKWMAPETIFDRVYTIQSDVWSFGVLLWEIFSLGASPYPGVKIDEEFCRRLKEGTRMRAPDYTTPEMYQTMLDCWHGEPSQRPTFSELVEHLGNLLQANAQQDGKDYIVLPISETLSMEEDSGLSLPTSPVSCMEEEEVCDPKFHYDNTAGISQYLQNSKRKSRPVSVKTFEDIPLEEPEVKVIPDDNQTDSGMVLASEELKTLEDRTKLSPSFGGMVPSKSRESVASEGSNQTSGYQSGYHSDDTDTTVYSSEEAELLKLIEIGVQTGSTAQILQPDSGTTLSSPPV
The test system of data set [2] is Pseudotyped SARS CoV2. Format: cell-based. The following applies: HEK293T/17 with ACE2 and TMPRSS2, 48 hours, toxic concentrations excluded, normalised data.
For data set [3], the system named is HEK293T/17 cells. The following applies: for Cytostatic effect at concentrations above: 200–0.4 μM range; for Cytostatic effect (in words): HEK293T/17 cells.
Data set [4] addresses human HDHODH (Homo sapiens, UniProt Q02127). Kind of data set: HDHODH inhibition, in vitro fluorescence‐based assays run by Reaction Biology. The class given is biochemical.
Data set [5] concerns the target T1, SARS‐CoV‐2 M^pro (Severe acute respiratory syndrome coronavirus 2, UniProt P0DTD1).
T1 construct: M^pro releases the functional polypeptides from the polyproteins by extensive proteolytic processing
Kind of data set: M^Pro inhibition (fluorescence‐based turnover assay / dose response). The class given is biochemical. Particulars: enzyme inhibition; 17: fluorescence‐based turnover assay.

By melting point is commonly meant the temperature, or range, at which the solid turns liquid. In general, inhibition refers to the relative decrease from the control value, in per cent. Usually IC50 stands for the point on the concentration scale where inhibition reaches its midpoint. Higher therefore signals lower potency.

human HDHODH, sequence (Q02127 whole entry): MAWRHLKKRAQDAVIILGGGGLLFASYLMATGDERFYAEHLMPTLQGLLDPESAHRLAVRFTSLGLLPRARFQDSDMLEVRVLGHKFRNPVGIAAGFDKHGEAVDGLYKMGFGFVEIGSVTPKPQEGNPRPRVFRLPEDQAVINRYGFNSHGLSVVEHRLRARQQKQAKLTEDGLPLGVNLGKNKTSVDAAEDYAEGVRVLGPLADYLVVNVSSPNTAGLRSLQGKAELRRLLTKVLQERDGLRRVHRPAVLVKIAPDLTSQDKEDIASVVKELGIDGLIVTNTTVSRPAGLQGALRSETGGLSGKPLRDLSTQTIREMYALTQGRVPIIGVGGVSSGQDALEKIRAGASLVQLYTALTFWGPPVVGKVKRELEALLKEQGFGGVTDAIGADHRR

`O=C(c1cccc(S(F)(F)(F)(F)F)c1)N1CCCCC1` [3 a, [3‐(Pentafluoro‐λ^6‐sulfanyl)phenyl](piperidin‐1‐yl)methanone] came in with a melting point of 88 to 90 °C.

As for `O=C(c1cccc(S(F)(F)(F)(F)F)c1)N1CCOCC1` [3 c, [3‐(Pentafluoro‐λ^6‐sulfanyl)phenyl](morpholino)methanone], the melting point is 63 to 64 °C.

The compound `CS(=O)(=O)N1CCN(C(=O)c2cccc(S(F)(F)(F)(F)F)c2)CC1` [3 f, (3‐Pentafluoro‐λ^6‐sulfanyl phenyl)(4‐(methylsulfonyl)piperazin‐1‐yl)methanone] returned a melting point of 159 to 160 °C.

With `Cc1cc(C)c(/C=C2\C(=O)Nc3ccc(S(F)(F)(F)(F)F)cc32)[nH]1` [8 a, (3Z)‐3‐[(3,5‐Dimethyl‐1H‐pyrrol‐2‐yl)methylidene]‐5‐(pentafluoro‐λ^6‐sulfanyl)‐2,3‐dihydro‐1H‐indol‐2‐ one], the melting point fell in the range of 203 to 205 °C. For the same compound, in data set [1], the inhibition at 10 µM was 27% and the IC50 result was “did not manifest sufficient inhibition to generate IC50 values”.

With `CC(C)=C1C(=O)Nc2ccc(S(F)(F)(F)(F)F)cc21` [8 b, 5‐(Pentafluoro‐λ^6‐sulfanyl)‐3‐(propan‐2‐ylidene)‐2,3‐dihydro‐1H‐indol‐2‐one], the melting point lay in the range of 191 to 194 °C.

Take `Cc1cc(C)c(/C=C2\C(=O)Nc3cc(S(F)(F)(F)(F)F)ccc32)[nH]1` [9 a, (3Z)‐3‐[(3,5‐Dimethyl‐1H‐pyrrol‐2‐yl)methylidene]‐6‐(pentafluoro‐λ^6‐sulfanyl)‐2,3‐dihydro‐1H‐indol‐2‐one]: the melting point is 199 to 201 °C. In data set [1], the inhibition at 10 µM is 23% and the IC50 entry is recorded as “did not manifest sufficient inhibition to generate IC50 values”.

Compound `O=C1Nc2ccc(S(F)(F)(F)(F)F)cc2C12CCOCC2` [11 a, 5‐(Pentafluoro‐λ^6‐sulfanyl)‐1,2‐dihydrospiro[indole‐3,4′‐ oxan]‐2‐one] had a melting point of 247 to 249 °C.

`CN1C(=O)C2(CCOCC2)c2cc(S(F)(F)(F)(F)F)ccc21` [11 b, 1‐Methyl‐5‐(pentafluoro‐λ^6‐sulfanyl)‐1,2‐dihydrospiro[indole‐ 3,4′‐oxan]‐2‐one] yielded a melting point of 158 °C.

For `C/C(O)=C(\C#N)C(=O)Nc1ccc(C(F)(F)F)cc1` [Teriflunomide, reference compound], the “Effect on SARS‐CoV‐2 infection of target cells (in words)” value (“Effect on SARS‐CoV‐2 infection” for short) in data set [2] (listed as teriflunomide) was “no effect”. The “Cytostatic effect at concentrations above” value in data set [3] (HEK293T/17, MTS, 48 hours) is “above 0.78 μM”. The “Cytostatic effect (in words)” value in data set [3] is on record as “cytostatic”; in data set [3] (listed as teriflunomide), “strong cytostatic”.

As to `Cc1oncc1C(=O)Nc1ccc(S(F)(F)(F)(F)F)cc1` [compound 15, 5‐Methyl‐N‐[4‐(pentafluoro‐λ^6‐sulfanyl)phenyl]‐1,2‐oxazole‐ 4‐carboxamide], the melting point lay within 167 to 168 °C. The same compound displayed an IC50 in data set [4] (IC50, HDHODH inhibition) of 365 nM. Besides, the “Effect on SARS‐CoV‐2 infection” value in data set [2] was “satisfactory inhibition of SARS‐CoV‐2 infection”. In addition, the “Cytostatic effect (in words)” value in data set [3] is recorded as “cytostatic”.

Consider `C/C(O)=C(\C#N)C(=O)Nc1ccc(S(F)(F)(F)(F)F)cc1` [compound 16, (2Z)‐2‐Cyano‐3‐hydroxy‐N‐[4‐(pentafluoro‐λ^6‐sulfanyl)phenyl] but‐2‐enamide], for which the melting point is 167 to 170 °C. Moreover, the IC50 in data set [4] (IC50, HDHODH inhibition) was 27 nM. In addition, in data set [4] (IC50, individual determinations behind the mean (n=2), HDHODH inhibition), the IC50 was 29 nM and 25 nM. The “Activity/affinity towards HDHODH compared with Teriflunomide” value in data set [4] (relative to Teriflunomide, listed as SF5‐Teriflunomide) was “approximately twice as active; also recorded: approximately two‐fold greater affinity”. Also, in data set [2] (listed as SF5-teriflunomide), the “Effect on SARS‐CoV‐2 infection” value is “no effect”. Further, the “Cytostatic effect at concentrations above” value in data set [3] (HEK293T/17, MTS, 48 hours) is greater than 3.1 µM. Besides, in data set [3], the “Cytostatic effect (in words)” value is recorded as “cytostatic”. Moreover, the “Cytostatic effect (in words)” value in data set [3] (listed as SF5-teriflunomide) was “strong cytostatic”.

On to `N#C/C(C(=O)Nc1ccc(F)cc1)=C(/O)c1ccc(Cl)cc1` [compound 17], for which half-maximal inhibition in data set [5] (IC50) was put at 230 nM. The “Activity versus HDHODH (in words)” value in data set [4] was “inactive; also recorded: no affinity”. Further, the inhibition at 10 µM in data set [4] (HDHODH, 10 μM, read-out: Percent inhibition at 10 μM) is less than 10%. The “Effect on SARS‐CoV‐2 infection” value in data set [2] is “enhancing effect”. In addition, in data set [3] (HEK293T/17, MTS, 48 hours), the “Cells healthy up to” value was “up to 50 μM”. Further, the “Cytostatic effect (in words)” value in data set [3] is on record as “less cytostatic”.
